Measured values reported in patent publication US20260130933A1, “PHARMACEUTICAL COMPOSITION FOR PREVENTION OR TREATMENT OF NEPHROPATHY AND/OR DIABETES MELLITUS, COMPRISING ENAVOGLIFLOZIN” (DAEWOONG PHARMACEUTICAL CO., LTD., priority 2022, published 2026).

Test: Example 4: subgroup of patients with proteinuria (baseline UACR of 30 to 3500 g/kg) of Examples 1 to 3, percent change in UACR at week 24
Type: in vivo, human
Conditions: for UACR decrease at week 24 compared to baseline: proteinuria subgroup
Text: Among the patient groups that received the test drugs and the control drug of Examples 1 to 3, a group of patients with proteinuria (baseline UACR of 30 to 3500 g/kg) was additionally analyzed.
Among the patients in Example 1, a subgroup with baseline UACR of 30 to 3500 g/kg was classified as a group of patients with proteinuria.
Among the patients in Example 2, a subgroup with the baseline UACR of 30 to 3500 g/kg was classified as a group of patients with proteinuria.
Similarly, among the patients in Example 3, a subgroup with the baseline UACR of 30 to 3500 g/kg was classified as a group of patients with proteinuria.

[1] = week 24, Example 2 (with metformin), per-protocol set, UACR 30-3500 g/kg at baseline
[2] = week 24, Example 3 (with metformin and gemigliptin), per-protocol set, UACR 30-3500 g/kg baseline
[3] = week 24, Example 1 (monotherapy), full analysis set, UACR 30-3500 g/kg at baseline

| Compound | Percent change from baseline in UACR, Mean [1] [%] | Percent change from baseline in UACR, Median [1] [%] | UACR, Mean [1] [g/kg] | UACR, Median [1] [g/kg] | Percent change from baseline in UACR, Mean [2] [%] | Percent change from baseline in UACR, Median [2] [%] | UACR, Mean [2] [g/kg] | UACR, Median [2] [g/kg] | UACR decrease at week 24 compared to baseline (dual combination therapy with metformin) [%] | UACR decrease at week 24 compared to baseline (enavogliflozin administered alone) [%] | UACR decrease at week 24 compared to baseline (triple combination therapy with metformin and gemigliptin) [%] | UACR change, decrease compared to the dapagliflozin-administered patient group (two studies (Examples 2 and 3) combined) [%] | Percent change from baseline in UACR, Difference (enavogliflozin 0.3 mg − Placebo) [3] [%] | Percent change from baseline in UACR, Mean [3] [%] | Percent change from baseline in UACR, Median [3] [%] | UACR, Mean [3] [g/kg] | UACR, Median [3] [g/kg] | Percent change from baseline in UACR, Difference (enavogliflozin 0.3 mg − dapagliflozin 10 mg) [1] [%] | Percent change from baseline in UACR, Difference (enavogliflozin 0.3 mg − dapagliflozin 10 mg) [2] [%] |
| --- | --- | --- | --- | --- | --- | --- | --- | --- | --- | --- | --- | --- | --- | --- | --- | --- | --- | --- | --- |
| CCOc1ccc(Cc2cc([C@@H]3O[C@H](CO)[C@@H](O)[C@H](O)[C@H]3O)ccc2Cl)cc1 [Dapagliflozin, reference compound] | −26.01 | −39.48 | 93.37 | 45.70 | −13.09 | −39.84 | 80.60 | 43.10 |  |  |  |  |  |  |  |  |  |  |  |
| OC[C@H]1O[C@@H](c2cc(Cc3ccc(C4CC4)cc3)c(Cl)c3c2CCO3)[C@H](O)[C@@H](O)[C@@H]1O [Enavogliflozin, (2S,3R,4R,5S,6R)-2-(7-chloro-6 (4-cyclopropylbenzyl)-2,3-dihydrobenzofuran-4-yl)-6-(hydroxymethyl)tetrahydro-2H-pyran-3,4,5-triol] | −47.35 | −48.74 | 45.64 | 27.65 | −36.03 | −55.97 | 75.40 | 46.80 | 47.35 | 46.06 | 36.03 | 20.72 | −50.89 | −46.06 | −64.48 | 70.29 | 26.05 | −21.33 | −22.94 |
